Results from ChEMBL document CHEMBL1142798, “Lipophilic versus hydrogen-bonding effect in P3 on potency and selectivity of valine aspartyl ketones as caspase 3 inhibitors” (Bioorg Med Chem Lett, 2005).

Key:
[1] = biological target: T1, Caspase-3 (Homo sapiens, UniProt P42574); test: Inhibitory activity against recombinant human Caspase-3
T1 sequence (P42574 whole entry): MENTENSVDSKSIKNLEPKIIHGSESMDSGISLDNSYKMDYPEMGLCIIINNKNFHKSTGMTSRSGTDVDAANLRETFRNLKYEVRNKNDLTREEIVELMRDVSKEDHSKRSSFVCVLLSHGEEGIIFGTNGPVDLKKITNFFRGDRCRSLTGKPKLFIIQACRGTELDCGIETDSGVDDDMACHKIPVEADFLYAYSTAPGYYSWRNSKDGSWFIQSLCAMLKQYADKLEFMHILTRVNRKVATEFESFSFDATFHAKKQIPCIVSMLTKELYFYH

[2] = biological target: T2, Caspase-1 (Homo sapiens, UniProt P29466); test: Inhibitory activity against recombinant human Caspase-1
T2 sequence (P29466 whole entry): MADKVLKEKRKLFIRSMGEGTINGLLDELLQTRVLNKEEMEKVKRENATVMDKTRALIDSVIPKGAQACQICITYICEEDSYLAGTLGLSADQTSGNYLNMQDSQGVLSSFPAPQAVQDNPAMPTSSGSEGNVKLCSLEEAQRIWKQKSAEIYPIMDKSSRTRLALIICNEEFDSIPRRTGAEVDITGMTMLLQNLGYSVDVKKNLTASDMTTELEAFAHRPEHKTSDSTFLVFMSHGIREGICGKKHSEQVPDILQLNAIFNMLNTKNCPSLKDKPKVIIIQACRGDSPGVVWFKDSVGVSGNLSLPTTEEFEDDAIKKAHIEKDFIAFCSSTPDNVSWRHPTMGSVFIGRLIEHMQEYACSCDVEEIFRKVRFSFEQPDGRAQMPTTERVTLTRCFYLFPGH

[3] = biological target: Caspase-8 (Homo sapiens, UniProt Q14790); test: Inhibitory activity against recombinant human Caspase-8
Caspase-8, sequence (Q14790 217-374 limits assumed): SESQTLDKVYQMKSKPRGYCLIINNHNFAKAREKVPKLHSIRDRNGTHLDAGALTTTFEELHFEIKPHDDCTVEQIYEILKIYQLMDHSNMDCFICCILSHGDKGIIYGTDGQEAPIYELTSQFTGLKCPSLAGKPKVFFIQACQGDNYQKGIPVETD
Caspase-8, sequence (Q14790 385-479 limits assumed): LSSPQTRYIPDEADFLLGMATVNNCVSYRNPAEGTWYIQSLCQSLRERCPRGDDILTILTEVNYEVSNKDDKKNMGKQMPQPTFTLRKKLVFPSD

[4] = biological target: T3, Caspase-7 (Homo sapiens, UniProt P55210); test: Inhibitory activity against recombinant human Caspase-7
T3 sequence (P55210 whole entry): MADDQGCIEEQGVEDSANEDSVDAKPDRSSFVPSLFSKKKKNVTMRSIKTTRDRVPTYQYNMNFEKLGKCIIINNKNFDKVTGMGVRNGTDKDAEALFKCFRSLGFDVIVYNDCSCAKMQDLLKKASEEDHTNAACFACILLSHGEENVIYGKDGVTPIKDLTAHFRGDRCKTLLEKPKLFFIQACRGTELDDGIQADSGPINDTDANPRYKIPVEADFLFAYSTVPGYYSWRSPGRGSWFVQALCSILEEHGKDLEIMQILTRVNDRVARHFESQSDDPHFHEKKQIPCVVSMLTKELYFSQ

COc1ccc(OC)c(CC(=O)N[C@H](C(=O)N[C@@H](CC(=O)O)C(=O)CSCc2ccccc2)C(C)C)c1 showed an IC50 [1] of 0.053 µM, an IC50 [2] of 7.07 µM and an IC50 [3] of 7.91 µM.

Work on COc1ccc(C(C)=O)cc1CC(=O)N[C@H](C(=O)N[C@@H](CC(=O)O)C(=O)CSCc1ccccc1)C(C)C yielded an IC50 [1] of 0.013 µM, an IC50 [2] of 6.19 µM and an IC50 [4] of 0.555 µM. For the same compound, the IC50 [3] was 3.88 µM.

Work on CC(C)[C@H](NC(=O)C(C)(C)O)C(=O)N[C@@H](CC(=O)O)C(=O)CSCc1ccccc1 yielded an IC50 [1] of 0.467 µM, an IC50 [2] of 18.4 µM and an IC50 [4] of 10.9 µM. It also gave an IC50 [3] of 13.8 µM.

CCC[C@@H](C(=O)N[C@H](C(=O)N[C@@H](CC(=O)O)C(=O)CSCc1ccccc1)C(C)C)c1cc(Br)ccc1OC gave an IC50 [2] of over 10 µM.

Work on CC(C)[C@H](O)C(=O)N[C@H](C(=O)N[C@@H](CC(=O)O)C(=O)CSCc1ccccc1)C(C)C yielded an IC50 [1] of 0.118 µM, an IC50 [2] of 3.01 µM and an IC50 [4] of 3.4 µM. For the same compound, the IC50 [3] was 7.34 µM.

Work on COc1ccc(Br)cc1[C@H](C(=O)N[C@H](C(=O)N[C@@H](CC(=O)O)C(=O)CSCc1ccccc1)C(C)C)C(C)C yielded an IC50 [2] of over 10 µM and an IC50 [4] of over 10 µM.

Work on COc1ccc(Br)cc1[C@@H](C)C(=O)N[C@H](C(=O)N[C@@H](CC(=O)O)C(=O)CSCc1ccccc1)C(C)C yielded an IC50 [2] of over 10 µM.

With CC(C)[C@H](NC(=O)C(O)(C(F)(F)F)C(F)(F)F)C(=O)N[C@@H](CC(=O)O)C(=O)CSCc1ccccc1 the IC50 [1] was 0.146 µM, the IC50 [2] was over 10 µM and the IC50 [4] was over 10 µM. It also gave an IC50 [3] of over 10 µM.

In the case of CC(C)[C@H](NC(=O)C(O)(c1ccccc1)c1ccccc1)C(=O)N[C@@H](CC(=O)O)C(=O)CSCc1ccccc1, the IC50 [1] is reported as 1.29 µM, the IC50 [2] is reported as over 10 µM and the IC50 [4] is reported as over 10 µM. The IC50 [3] was over 10 µM.

Compound CC(C)[C@H](NC(=O)C(C)(O)c1ccccc1)C(=O)N[C@@H](CC(=O)O)C(=O)CSCc1ccccc1 (stereo not given in full) has an IC50 [1] of 0.085 µM, an IC50 [2] of 18.9 µM and an IC50 [4] of 2.76 µM. For the same compound, the IC50 [3] was 8 µM.

Compound CCC(O)(CC)C(=O)N[C@H](C(=O)N[C@@H](CC(=O)O)C(=O)CSCc1ccccc1)C(C)C has an IC50 [1] of 2.02 µM, an IC50 [2] of over 10 µM and an IC50 [4] of over 10 µM. The IC50 [3] was 9.58 µM.

Work on CC(C)[C@H](NC(=O)[C@H](O)c1ccccc1)C(=O)N[C@@H](CC(=O)O)C(=O)CSCc1ccccc1 yielded an IC50 [1] of 0.041 µM, an IC50 [2] of 4.16 µM and an IC50 [4] of 1.05 µM. It also gave an IC50 [3] of 1.15 µM.

Work on CC(C)[C@H](NC(=O)Cc1ccccc1)C(=O)N[C@@H](CC(=O)O)C(=O)CSCc1ccccc1 yielded an IC50 [2] of 21.2 µM and an IC50 [3] of 22.1 µM.

CC(C)[C@H](NC(=O)C1(O)CC1)C(=O)N[C@@H](CC(=O)O)C(=O)CSCc1ccccc1 showed an IC50 [1] of 0.16 µM, an IC50 [2] of 9.59 µM and an IC50 [4] of 5.09 µM. For the same compound, the IC50 [3] was 12.3 µM.

Work on CO[C@H](C(=O)N[C@H](C(=O)N[C@@H](CC(=O)O)C(=O)CSCc1ccccc1)C(C)C)c1ccccc1 yielded an IC50 [1] of 0.425 µM, an IC50 [2] of over 10 µM and an IC50 [4] of over 10 µM. The IC50 [3] was 9.17 µM.

COc1ccc(-c2nc(C)no2)cc1CC(=O)N[C@H](C(=O)N[C@@H](CC(=O)O)C(=O)CSCc1ccccc1)C(C)C gave an IC50 [1] of 0.009 µM, an IC50 [2] of 5.45 µM and an IC50 [4] of 0.097 µM. For the same compound, the IC50 [3] was 3.29 µM.

In the case of CC(C)[C@H](NC(=O)[C@H](O)C(C)C)C(=O)N[C@@H](CC(=O)O)C(=O)CSCc1ccccc1, the IC50 [1] is reported as 0.33 µM, the IC50 [2] is reported as over 10 µM and the IC50 [4] is reported as over 10 µM. The IC50 [3] was 7.27 µM.

COc1ccc(Br)cc1[C@H](C(=O)N[C@H](C(=O)N[C@@H](CC(=O)O)C(=O)CSCc1ccccc1)C(C)C)C1CC1 was tested, and the IC50 [1] was 0.323 µM, the IC50 [2] was over 10 µM and the IC50 [4] was over 10 µM. For the same compound, the IC50 [3] was over 10 µM.

CC(C)[C@H](NC(=O)C(O)c1ccccc1)C(=O)N[C@@H](CC(=O)O)C(=O)CSCc1ccccc1 (single isomer, unassigned) was tested, and the IC50 [1] was 0.1 µM, the IC50 [2] was 4.06 µM and the IC50 [4] was 10.9 µM. It also gave an IC50 [3] of 3.65 µM.

Compound COc1ccc(Br)cc1CC(=O)N[C@H](C(=O)N[C@@H](CC(=O)O)C(=O)CSCc1ccccc1)C(C)C (stereo in doubt; 6) has an IC50 [1] of 0.018 µM, an IC50 [2] of 3.04 µM and an IC50 [4] of 0.284 µM. For the same compound, the IC50 [3] was 1.89 µM.

In the case of C#CC[C@@H](C(=O)N[C@H](C(=O)N[C@@H](CC(=O)O)C(=O)CSCc1ccccc1)C(C)C)c1cc(Br)ccc1OC (stereo in doubt; 13), the IC50 [1] is reported as 0.341 µM, the IC50 [2] is reported as over 10 µM and the IC50 [4] is reported as 3.62 µM. It also gave an IC50 [3] of 4.47 µM.

For C#CC[C@@H](C(=O)N[C@H](C(=O)N[C@@H](CC(=O)O)C(=O)CSCc1ccccc1)C(C)C)c1cc(Br)ccc1OC (stereo in doubt; 14), the IC50 [1] was 0.017 µM, the IC50 [2] was 1.03 µM and the IC50 [4] was 0.139 µM. The IC50 [3] was 0.092 µM.

Work on COc1ccc(Br)cc1CC(=O)N[C@H](C(=O)N[C@@H](CC(=O)O)C(=O)CSCc1ccccc1)C(C)C (stereo in doubt; 29) yielded an IC50 [1] of 0.018 µM, an IC50 [4] of 0.285 µM and an IC50 [3] of 1.89 µM.
